# Laboratory results: patent US11306079B2, “3-(5-amino-pyrazin-2-yl)-benzenesulfonamide derivatives and related compounds as PI3K-gamma kinase inhibitors” (Incyte Corporation, priority 2017, dated 2022)
# Structures can show the parent of a compound that is named as a salt.
# Legend:
# [1] = biological target: PI3Kδ (p110δ/p85α) Recombinant Human Protein (Homo sapiens (Human), UniProt O00329); assay: PI3Kδ Scintillation Proximity Assay; assay type: biochemical; settings: 20 μM PIP2, 2 μM ATP, 3.4 nM PI3Kδ, 120 min, room temperature
# Sequence of PI3Kδ (p110δ/p85α) Recombinant Human Protein (O00329 whole entry): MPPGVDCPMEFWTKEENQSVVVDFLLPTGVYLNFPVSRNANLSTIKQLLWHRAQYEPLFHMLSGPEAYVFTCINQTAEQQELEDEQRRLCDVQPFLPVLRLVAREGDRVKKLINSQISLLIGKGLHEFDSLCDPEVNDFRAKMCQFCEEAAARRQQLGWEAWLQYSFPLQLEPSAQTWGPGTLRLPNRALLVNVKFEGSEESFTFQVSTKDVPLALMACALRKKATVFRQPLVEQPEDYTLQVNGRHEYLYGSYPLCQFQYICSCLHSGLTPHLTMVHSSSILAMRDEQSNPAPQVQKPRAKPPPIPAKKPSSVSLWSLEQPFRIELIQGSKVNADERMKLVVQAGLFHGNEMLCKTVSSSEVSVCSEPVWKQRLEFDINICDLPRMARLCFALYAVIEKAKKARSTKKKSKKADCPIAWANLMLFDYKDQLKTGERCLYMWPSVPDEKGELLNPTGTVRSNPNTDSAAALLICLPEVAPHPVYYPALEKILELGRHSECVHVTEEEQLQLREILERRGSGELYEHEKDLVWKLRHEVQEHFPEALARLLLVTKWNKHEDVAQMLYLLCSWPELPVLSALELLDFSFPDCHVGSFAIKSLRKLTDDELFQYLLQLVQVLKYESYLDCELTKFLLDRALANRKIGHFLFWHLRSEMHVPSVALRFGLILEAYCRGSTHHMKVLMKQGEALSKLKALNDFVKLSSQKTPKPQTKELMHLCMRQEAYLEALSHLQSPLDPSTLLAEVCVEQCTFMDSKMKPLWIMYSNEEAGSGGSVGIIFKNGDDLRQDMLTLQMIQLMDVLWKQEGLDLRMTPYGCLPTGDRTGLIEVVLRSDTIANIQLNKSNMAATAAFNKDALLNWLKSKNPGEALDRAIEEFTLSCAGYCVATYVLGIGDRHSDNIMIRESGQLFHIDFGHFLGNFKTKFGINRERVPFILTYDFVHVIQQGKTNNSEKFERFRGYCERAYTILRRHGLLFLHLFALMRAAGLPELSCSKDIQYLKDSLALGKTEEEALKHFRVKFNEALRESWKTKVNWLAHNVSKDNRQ
# Sequence of PI3Kδ (p110δ/p85α) Recombinant Human Protein (P27986 whole entry partner): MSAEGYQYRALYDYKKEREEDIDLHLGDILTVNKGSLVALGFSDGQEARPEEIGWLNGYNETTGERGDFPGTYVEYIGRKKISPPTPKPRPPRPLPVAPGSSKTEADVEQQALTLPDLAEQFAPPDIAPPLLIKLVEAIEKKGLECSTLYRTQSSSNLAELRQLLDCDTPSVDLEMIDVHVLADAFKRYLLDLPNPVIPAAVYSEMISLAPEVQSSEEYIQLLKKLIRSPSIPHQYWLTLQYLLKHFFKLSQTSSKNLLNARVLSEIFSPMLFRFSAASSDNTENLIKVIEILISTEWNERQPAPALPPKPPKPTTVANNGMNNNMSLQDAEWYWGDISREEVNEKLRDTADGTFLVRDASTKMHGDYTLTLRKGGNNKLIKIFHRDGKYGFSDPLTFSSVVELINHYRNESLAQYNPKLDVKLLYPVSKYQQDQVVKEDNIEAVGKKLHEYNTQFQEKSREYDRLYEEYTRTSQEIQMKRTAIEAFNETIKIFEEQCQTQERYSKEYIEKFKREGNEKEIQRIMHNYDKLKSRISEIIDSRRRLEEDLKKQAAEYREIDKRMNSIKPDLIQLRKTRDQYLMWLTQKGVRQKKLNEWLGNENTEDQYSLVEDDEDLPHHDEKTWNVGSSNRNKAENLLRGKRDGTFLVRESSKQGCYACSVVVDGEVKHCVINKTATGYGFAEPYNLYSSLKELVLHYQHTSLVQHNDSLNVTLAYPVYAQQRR
# Excerpt: Example C. PI3Kδ Scintillation Proximity Assay
# (§1) [γ-^33P]ATP (10 mCi/mL) and Wheat Germ Agglutinin (WGA) YSi SPA Scintillation Beads was purchased from Perkin-Elmer (Waltham, Mass.). Lipid kinase substrate, D-myo-Phosphatidylinositol 4,5-bisphosphate (PtdIns(4,5)P2)D (+)-sn-1,2-di-O-octanoylglyceryl, 3-O-phospho linked (PIP2), CAS 204858-53-7, was purchased from Echelon Biosciences (Salt Lake City, Utah). PI3Kδ (p110δ/p85α) Recombinant Human Protein was purchased from Eurofins (St Charles, Mo.). ATP, MgCl2, DTT, EDTA, MOPS and CHAPS were purchased from Sigma-Aldrich (St. Louis, Mo.).
# (§2) The kinase reaction was conducted in polystyrene 384-well Greiner Bio-one white plate from Thermo Fisher Scientific in a final volume of 25 μL. Inhibitors were first diluted serially in DMSO and added to the plate wells before the addition of other reaction components. The final concentration of DMSO in the assay was 2%. The PI3Kδ assay was carried out at room temperature in 20 mM MOPS, pH 6.7, 10 mM MgCl2, 5 mM DTT and CHAPS 0.03%. Reactions were initiated by the addition of ATP, the final reaction mixture consisted of 20 μM PIP2, 2 μM ATP, 0.5 μCi [γ-^33P] ATP, 3.4 nM PI3Kδ. Reactions were incubated for 120 min and terminated by the addition of 40 μL SPA beads suspended in quench buffer: 163 mM potassium phosphate pH 7.8, 20% glycerol, 25 mM EDTA. The final concentration of SPA beads is 1.0 mg/mL. After the plate sealing, plates were shaken overnight at room temperature and centrifuged at 1500 rpm for 10 min, the radioactivity of the product was determined by scintillation counting on Topcount (Perkin-Elmer). IC50 determination was performed by fitting the curve of percent of the solvent control activity versus the log of the inhibitor concentration using the GraphPad Prism 6.0 software.
# [2] = biological target: PI3Kγ (p110γ) Recombinant Human Protein (Homo sapiens (Human), UniProt P48736); assay: PI3K-γ Scintillation Proximity Assay; assay type: biochemical; settings: 20 μM PIP2, 2 μM ATP, 13 nM PI3Kγ, 120 min, room temperature
# Sequence of PI3Kγ (p110γ) Recombinant Human Protein (P48736 whole entry): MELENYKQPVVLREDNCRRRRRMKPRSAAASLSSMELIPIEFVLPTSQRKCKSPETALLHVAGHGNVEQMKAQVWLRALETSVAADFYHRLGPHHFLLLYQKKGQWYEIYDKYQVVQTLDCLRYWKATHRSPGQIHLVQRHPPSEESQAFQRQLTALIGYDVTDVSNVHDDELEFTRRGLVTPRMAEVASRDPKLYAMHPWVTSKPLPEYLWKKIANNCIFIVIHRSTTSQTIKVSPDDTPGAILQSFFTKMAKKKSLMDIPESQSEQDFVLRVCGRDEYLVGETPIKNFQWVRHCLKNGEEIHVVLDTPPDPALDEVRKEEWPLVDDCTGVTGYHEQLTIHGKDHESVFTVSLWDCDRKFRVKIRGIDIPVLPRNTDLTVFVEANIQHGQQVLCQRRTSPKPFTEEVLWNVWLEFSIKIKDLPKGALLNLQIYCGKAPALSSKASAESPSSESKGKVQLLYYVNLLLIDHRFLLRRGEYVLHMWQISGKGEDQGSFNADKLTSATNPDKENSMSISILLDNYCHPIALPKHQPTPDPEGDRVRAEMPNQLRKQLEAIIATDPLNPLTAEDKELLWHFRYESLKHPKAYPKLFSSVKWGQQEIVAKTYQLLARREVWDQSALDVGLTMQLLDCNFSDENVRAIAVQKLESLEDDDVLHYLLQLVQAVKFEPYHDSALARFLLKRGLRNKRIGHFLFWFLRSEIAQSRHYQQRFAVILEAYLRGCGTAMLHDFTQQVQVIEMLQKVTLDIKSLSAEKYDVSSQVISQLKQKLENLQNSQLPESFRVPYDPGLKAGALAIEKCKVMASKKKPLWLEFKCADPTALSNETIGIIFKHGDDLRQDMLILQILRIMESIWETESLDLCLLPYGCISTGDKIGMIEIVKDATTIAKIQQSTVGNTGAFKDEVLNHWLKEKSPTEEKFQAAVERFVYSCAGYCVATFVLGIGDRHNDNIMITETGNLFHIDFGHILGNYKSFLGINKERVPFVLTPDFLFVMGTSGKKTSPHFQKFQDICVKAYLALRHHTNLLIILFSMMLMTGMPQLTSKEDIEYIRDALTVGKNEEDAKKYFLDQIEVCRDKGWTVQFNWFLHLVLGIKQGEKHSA
# Excerpt: Example B. PI3K-γ Scintillation Proximity Assay
# as §1, with “PI3Kγ (p110γ)” for “PI3Kδ (p110δ/p85α)”, “Life technology (Grand island, NY),” for “Eurofins (St Charles, Mo.).”
# as §2, with “PI3Kγ” for “PI3Kδ”, “13” for “3.4”, “PI3Kγ.” for “PI3Kδ.”
Compound,IC50 [1] [nM],IC50 [2] [nM]
"Cc1ccc(S(=O)(=O)NC23CCC(CO)(CC2)OC3)cc1-c1cnc(N)c(-c2ccncc2C#N)n1 [Example 22, 3-(5-Amino-6-(3-cyanopyridin-4-yl)pyrazin-2-yl)-N-(1-(hydroxymethyl)-2-oxabicyclo[2.2.2]octan-4-yl)-4-methylbenzenesulfonamide trifluoroacetate salt]",≥ 2000,< 2000
"CNC(=O)C12CC(NS(=O)(=O)c3ccc(C)c(-c4cnc(N)c(-n5cncn5)n4)c3)(C1)C2 [Example 32, 3-(3-(5-Amino-6-(1H-1,2,4-triazol-1-yl)pyrazin-2-yl)-4-methylphenylsulfonamido)-N-methylbicyclo[1.1.1]pentane-1-carboxamide trifluoroacetate Salt]",< 2000,≤ 100
"Cc1ccc(S(=O)(=O)NC23CC(C(=O)N(C)C)(C2)C3)cc1-c1cnc(N)c(-n2cncn2)n1 [Example 33, 3-(3-(5-Amino-6-(1H-1,2,4-triazol-1-yl)pyrazin-2-yl)-4-methylphenylsulfonamido)-N,N-dimethylbicyclo[1.1.1]pentane-1-carboxamide trifluoroacetate salt]",≤ 500,≤ 100
"Cc1ccc(S(=O)(=O)NC23CC(C#N)(C2)C3)cc1-c1cnc(N)c(-c2nn[nH]n2)n1 [Example 36, 3-(5-Amino-6-(2H-tetrazol-5-yl)pyrazin-2-yl)-N-(3-cyanobicyclo[1.1.1]pentan-1-yl)-4-methylbenzenesulfonamide Trifluoroacetate Salt]",≥ 2000,≤ 100
"Cc1ccc(S(=O)(=O)NC23CCC(C#N)(C2)C3)cc1-c1cnc(N)c(-c2nn[nH]n2)n1 [Example 37, 3-(5-Amino-6-(2H-tetrazol-5-yl)pyrazin-2-yl)-N-(4-cyanobicyclo[2.1.1]hexan-1-yl)-4-methylbenzenesulfonamide Trifluoroacetate Salt]",≥ 2000,≤ 100
"[2H]C([2H])([2H])c1ccc(S(=O)(=O)NC23CC(CO)(C2)C3)cc1-c1cnc(N)c(-n2nccn2)n1 [Example 51, 3-(5-Amino-6-(2H-1,2,3-triazol-2-yl)pyrazin-2-yl)-N-(3-(hydroxymethyl)bicyclo[1.1.1]pentan-1-yl)-4-(methyl-d3)benzenesulfonamide Trifluoroacetate Salt]",< 2000,≤ 100
"[2H]C([2H])([2H])c1ccc(S(=O)(=O)NC23CNC(C2)C3)cc1-c1cnc(N)c(-n2nccn2)n1 [Example 52, 3-(5-Amino-6-(2H-1,2,3-triazol-2-yl)pyrazin-2-yl)-N-(2-azabicyclo[2.1.1]hexan-4-yl)-4-(methyl-d3)benzenesulfonamide Trifluoroacetate Salt]",≤ 500,≤ 500
"O=C(O)C(F)(F)F.[2H]C([2H])([2H])c1ccc(S(=O)(=O)NC23CNC(C2)C3)cc1-c1cnc(N)c(-n2cncn2)n1 [Example 53, 3-(5-Amino-6-(1H-1,2,4-triazol-1-yl)pyrazin-2-yl)-N-(2-azabicyclo[2.1.1]hexan-4-yl)-4-(methyl-d3)benzenesulfonamide trifluoroacetate salt]",≤ 500,≤ 100
"[2H]C([2H])([2H])c1ccc(S(=O)(=O)NC23CC(C2)N(C(C)C)C3)cc1-c1cnc(N)c(-n2cncn2)n1 [Example 60, 3-(5-Amino-6-(1H-1,2,4-triazol-1-yl)pyrazin-2-yl)-N-(2-isopropyl-2-azabicyclo[2.1.1]hexan-4-yl)-4-(methyl-d3)benzenesulfonamide Trifluoroacetate Salt]",≤ 500,≤ 100
"Cc1ccc(S(=O)(=O)NC23COC(CO)(C2)C3)cc1-c1cnc(N)c(-c2cn(C)nc2C)c1 [Example 84, 3-(6-amino-5-(1,3-dimethyl-1H-pyrazol-4-yl)pyridin-3-yl)-N-(1-(hydroxymethyl)-2-oxabicyclo[2.1.1]hexan-4-yl)-4-methylbenzenesulfonamide]",≤ 500,≤ 500
